PMC12903969, “Discovery of a Novel and Potent Kir4.1 Inhibitor as a Safe and Rapid‐Onset Antidepressant Agent in Mice” (Advanced Science, 2025)
Read-outs that look alike come from different tables or passages of the source.

Experiments:
[1] = target: T1, Kir4.1 (Homo sapiens, UniProt P78508); assay: Whole-cell patch clamp, Kir4.1 currents in transfected CHO-K1 cells; format: cell-based; settings: for inhibition at 1 µM: CHO-K1, 1 μM; for inhibition at 10 µM: CHO-K1, 10 μM
T1 construct: host or cells: CHO-K1
T1 sequence (P78508 1-379): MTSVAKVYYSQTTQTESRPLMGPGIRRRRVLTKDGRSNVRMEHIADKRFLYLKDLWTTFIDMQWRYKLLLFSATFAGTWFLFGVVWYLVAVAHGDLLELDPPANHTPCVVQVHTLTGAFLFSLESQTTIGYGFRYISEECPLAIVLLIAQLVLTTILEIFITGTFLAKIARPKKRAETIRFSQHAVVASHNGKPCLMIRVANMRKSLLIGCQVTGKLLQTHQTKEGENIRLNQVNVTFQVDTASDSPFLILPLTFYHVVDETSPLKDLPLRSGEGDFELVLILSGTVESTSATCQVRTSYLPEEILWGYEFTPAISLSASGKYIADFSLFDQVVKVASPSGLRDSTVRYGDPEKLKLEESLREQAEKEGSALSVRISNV
Method: Plasmids encoding WT human potassium channels Kir1.1, Kir2.1, Kir2.2, Kir4.1, and Kir4.2 were obtained from the Beijing Genomics Institute. All point mutations were constructed using the QuickChange II Site‐Directed Mutagenesis Kit (Stratagene) and subsequently verified by sequencing.
CHO‐K1 cells were maintained in DMEM/F12 growth medium containing 10% fetal bovine serum. Plasmids encoding the target genes (3600 ng) and enhanced green fluorescent protein (400 ng) were cotransfected into cells using Lipofectamine 2000 (Invitrogen) in accordance with the manufacturer's instructions. Cells were seeded onto poly‐d‐lysine (PDL)‐coated glass coverslips 1 h prior to electrophysiological recordings. All cells were cultured under standard conditions of 5% CO2 at 37 °C.
Whole‐cell patch‐clamp recordings were obtained either in transiently transfected CHO‐K1 cells or in primary cultured astrocytes at room temperature using standard patch‐clamp techniques with an Axopatch‐700B amplifier (Axon Instruments). The signals were filtered at 2 kHz and sampled at 20 kHz using the Digidata 1440A interface (Axon Instruments). The resistance of borosilicate glass pipettes was typically 2–4 MΩ when filled with the internal solution. Drug application was facilitated using a BPS perfusion system (ALA Scientific Instruments). Macroscopic currents generated by expressed potassium channels were recorded under the voltage‐clamp conditions with an internal pipette solution composed of (in mM): 140 KCl, 5 NaCl, 1 CaCl2, 1 MgCl2, 10 HEPES, and 10 EGTA, pH 7.2 adjusted with KOH. The external solution contained (in mM): 140 NaCl, 5 KCl, 2 CaCl2, 1 MgCl2, 10 glucose, and 10 HEPES, pH 7.4 adjusted with NaOH. Currents were elicited with a hyperpolarized voltage at −120 mV from the holding potential of −80 mV, followed by a ramp voltage depolarizing to +50 mV. Astrocytic resting membrane potentials were recorded under current‐clamp conditions (I = 0 pA) using standard internal and external solutions, determined immediately after achieving whole‐cell mode.

[2] = system: MDA-MB-468 breast cancer cells; assay: Cytotoxicity test (CCK-8); format: cell-based; settings: Homo sapiens, MDA-MB-468, MDA-MB-468 breast cancer cells; read-out: IC50 ± SD (μM) for MDA-MB-468 Inhibition
Method: Cytotoxicity of all the tested compounds was determined using the cell counting kit‐8 (CCK‐8) assay kit (Beyotime, Shanghai, China). Briefly, MDA‐MB‐468 was cultured in L15 medium and plated in 96‐well plates at a density of 12,000 cells per well for 24 h at 37 °C in a 5% CO2 incubator. The tested compounds were dissolved in DMSO and diluted with culture medium (DMSO final concentration < 0.4%). Then the cells were treated with compounds (0.41, 1.23, 3.70, 11.11, 33.33, 100.00 µM) for 48 h. After treatments, removal of the supernatant liquor, 100 µL of new media diluted CCK‐8 solution (10% CCK‐8) was added into each well and incubated at 37 °C for 2 h. The absorbance of the mixture was directly measured at 450 nm. The results are presented as a percentage of the control.

[3] = +50 mV, read-out: Kir4.1 Inhibition ± SD (%) at 1 μM, +50 mV
[4] = -120 mV, read-out: Kir4.1 Inhibition ± SD (%) at 1 μM, -120 mV
[5] = +50 mV, read-out: Kir4.1 Inhibition ± SD (%) at 10 μM, +50 mV
[6] = -120 mV, read-out: Kir4.1 Inhibition ± SD (%) at 10 μM, -120 mV
[7] = CHO-K1, 0.5 μM, +50 mV, read-out: Kir4.1 Inhibition ± SD (%) at 0.5 μM, +50 mV
[8] = CHO-K1, 0.5 μM, -120 mV, read-out: Kir4.1 Inhibition ± SD (%) at 0.5 μM, -120 mV

## c1ccc2c(c1)oc1ccc(Nc3ccnc(NCC4(CN5CCOCC5)CC4)n3)cc12 [JX3235, N^4-(dibenzo[b,d]furan-2-yl)-N^2-((1-(morpholinomethyl)cyclopropyl)methyl)pyrimidine-2,4-diamine]
[1]; [3]
  inhibition at 1 µM: 10.8 ± 2.21%
[1]; [4]
  inhibition at 1 µM: 6.83 ± 3.85%
[1]; [5]
  inhibition at 10 µM: 92.4 ± 3.68%
[1]; [6]
  inhibition at 10 µM: 85.4 ± 5.46%
[2]
  IC50: 11.3 ± 0.32 µM

## O=C(NCCNc1nccc(Nc2ccc3oc4ccccc4c3c2)n1)N1CCOCC1 [JX3236, N-(2-((4-(dibenzo[b,d]furan-2-ylamino)pyrimidin-2-yl)amino)ethyl)morpholine-4-carboxamide]
[1]; [3]
  inhibition at 1 µM: 5 ± 5.21%
[1]; [4]
  inhibition at 1 µM: -4.25 ± 7.82%
[1]; [5]
  inhibition at 10 µM: 89.24 ± 0.5%
[1]; [6]
  inhibition at 10 µM: 70.8 ± 2.5%
[2]
  IC50: 21.9 ± 1.01 µM

## CC(C)(C)OC(=O)NCCCNc1nccc(Nc2ccc3oc4ccccc4c3c2)n1 [JX3237, tert-butyl (3-((4-(dibenzo[b,d]furan-2-ylamino)pyrimidin-2-yl)amino)propyl)carbamate]
[1]; [3]
  inhibition at 1 µM: 12.5 ± 7.25%
[1]; [4]
  inhibition at 1 µM: 7.65 ± 4.73%
[1]; [5]
  inhibition at 10 µM: 89.1 ± 3.59%
[1]; [6]
  inhibition at 10 µM: 73.8 ± 0.93%
[2]
  IC50: 4.84 ± 0.06 µM

## CCN(CC)CCCNc1nccc(Nc2ccc3oc4ccccc4c3c2)n1 [JX3238, N^4-(dibenzo[b,d]furan-2-yl)-N^2-(3-(diethylamino)propyl)pyrimidine-2,4-diamine]
[1]; [3]
  inhibition at 1 µM: 27 ± 12.3%
[1]; [4]
  inhibition at 1 µM: 2.21 ± 3.14%
[1]; [5]
  inhibition at 10 µM: 98.5 ± 0.23%
[1]; [6]
  inhibition at 10 µM: 93.1 ± 2.15%
[2]
  IC50: 10.3 ± 3.8 µM

## c1ccc2c(c1)oc1ccc(Nc3ccnc(NCCCN4CCCC4)n3)cc12 [JX3239, N^4-(dibenzo[b,d]furan-2-yl)-N^2-(3-(pyrrolidin-1-yl)propyl)pyrimidine-2,4-diamine]
[1]; [3]
  inhibition at 1 µM: 53.2 ± 3.51%
[1]; [4]
  inhibition at 1 µM: 36.4 ± 5.31%
[1]; [5]
  inhibition at 10 µM: 96 ± 2.25%
[1]; [6]
  inhibition at 10 µM: 90.9 ± 4.5%
[2]
  IC50: 11.1 ± 0.81 µM

## CC1(C)C2CN(CCCNc3nccc(Nc4ccc5oc6ccccc6c5c4)n3)CC21 (stereo not drawn) [JX3240, N^4-(dibenzo[b,d]furan-2-yl)-N^2-(3-(6,6-dimethyl-3-azabicyclo[3.1.0]hexan-3-yl)propyl)pyrimidine-2,4-diamine]
[1]; [7]
  inhibition at 0.5 µM: -0.92 ± 3.58%
[1]; [8]
  inhibition at 0.5 µM: -0.29 ± 1.05%
[1]; [3]
  inhibition at 1 µM: 90 ± 1.44%
[1]; [4]
  inhibition at 1 µM: 84.7 ± 4.13%
[1]; [5]
  inhibition at 10 µM: 97.46 ± 0.83%
[1]; [6]
  inhibition at 10 µM: 97.35 ± 0.65%
[2]
  IC50: 5.37 ± 0.22 µM

## O=C(NCCCNc1nccc(Nc2ccc3oc4ccccc4c3c2)n1)N1CCOCC1 [JX3241, N-(3-((4-(dibenzo[b,d]furan-2-ylamino)pyrimidin-2-yl)amino)propyl)morpholine-4-carboxamide]
[1]; [3]
  inhibition at 1 µM: 4.09 ± 2.08%
[1]; [4]
  inhibition at 1 µM: 1.97 ± 2.44%
[1]; [5]
  inhibition at 10 µM: 84.2 ± 2.69%
[1]; [6]
  inhibition at 10 µM: 59.5 ± 3.66%
[2]
  IC50: 21.1 ± 1.53 µM

## C[C@@H]1CN(CCCNc2nccc(Nc3ccc4oc5ccccc5c4c3)n2)C[C@H](C)O1 [JX3242, N^4-(dibenzo[b,d]furan-2-yl)-N^2-(3-((2S,6R)-2,6-dimethylmorpholino)propyl)pyrimidine-2,4-diamine]
[1]; [3]
  inhibition at 1 µM: -0.93 ± 7.76%
[1]; [4]
  inhibition at 1 µM: -3.38 ± 9.3%
[1]; [5]
  inhibition at 10 µM: 97.5 ± 1.92%
[1]; [6]
  inhibition at 10 µM: 94.2 ± 1.77%
[2]
  IC50: 5.38 ± 0.11 µM

## c1ccc2c(c1)oc1ccc(Nc3ccnc(NCCCN4CCSCC4)n3)cc12 [JX3243, N^4-(dibenzo[b,d]furan-2-yl)-N^2-(3-thiomorpholinopropyl)pyrimidine-2,4-diamine]
[1]; [3]
  inhibition at 1 µM: -1.39 ± 1.64%
[1]; [4]
  inhibition at 1 µM: 0.17 ± 1.63%
[1]; [5]
  inhibition at 10 µM: 98.74 ± 0.36%
[1]; [6]
  inhibition at 10 µM: 98.6 ± 0.56%
[2]
  IC50: 7.11 ± 0.62 µM

## c1ccc2c(c1)oc1ccc(Nc3ccnc(NCCCN4CCCCC4)n3)cc12 [JX3244, N^4-(dibenzo[b,d]furan-2-yl)-N^2-(3-(piperidin-1-yl)propyl)pyrimidine-2,4-diamine]
[1]; [7]
  inhibition at 0.5 µM: 74.9 ± 2.12%
[1]; [8]
  inhibition at 0.5 µM: 63 ± 5.95%
[1]; CHO-K1, 0.5 µM, read-out: Kir4.1 inhibition at 0.5 µM
  inhibition at 0.5 µM: > 60%
[1]; [3]
  inhibition at 1 µM: 85.4 ± 3.98%
[1]; [4]
  inhibition at 1 µM: 74.5 ± 6.63%
[1]; [5]
  inhibition at 10 µM: 98.66 ± 0.25%
[1]; [6]
  inhibition at 10 µM: 97 ± 1.09%
[2]
  IC50: 6.86 ± 0.23 µM

## CC1CCN(CCCNc2nccc(Nc3ccc4oc5ccccc5c4c3)n2)CC1 [JX3245, N^4-(dibenzo[b,d]furan-2-yl)-N^2-(3-(4-methylpiperidin-1-yl)propyl)pyrimidine-2,4-diamine]
[1]; [7]
  inhibition at 0.5 µM: 21.4 ± 6.07%
[1]; [8]
  inhibition at 0.5 µM: 9.76 ± 2.44%
[1]; [3]
  inhibition at 1 µM: 96.35 ± 0.66%
[1]; [4]
  inhibition at 1 µM: 92.48 ± 0.8%
[1]; [5]
  inhibition at 10 µM: 96.84 ± 0.61%
[1]; [6]
  inhibition at 10 µM: 95.5 ± 2.8%
[2]
  IC50: 5.95 ± 0.04 µM

## COC1CCN(CCCNc2nccc(Nc3ccc4oc5ccccc5c4c3)n2)CC1 [JX3246, N^4-(dibenzo[b,d]furan-2-yl)-N^2-(3-(4-methoxypiperidin-1-yl)propyl)pyrimidine-2,4-diamine]
[1]; [3]
  inhibition at 1 µM: 73 ± 5.77%
[1]; [4]
  inhibition at 1 µM: 55.4 ± 3.73%
[1]; [5]
  inhibition at 10 µM: 91.3 ± 3.5%
[1]; [6]
  inhibition at 10 µM: 89.5 ± 2.33%
[2]
  IC50: 9.97 ± 0.62 µM

## CC1CC(C)CN(CCCNc2nccc(Nc3ccc4oc5ccccc5c4c3)n2)C1 (stereo not drawn) [JX3247, N^4-(dibenzo[b,d]furan-2-yl)-N^2-(3-(3,5-dimethylpiperidin-1-yl)propyl)pyrimidine-2,4-diamine]
[1]; [3]
  inhibition at 1 µM: 80.4 ± 8.36%
[1]; [4]
  inhibition at 1 µM: 66.6 ± 2.75%
[1]; [5]
  inhibition at 10 µM: 97.75 ± 0.84%
[1]; [6]
  inhibition at 10 µM: 94.2 ± 2.26%
[2]
  IC50: 6.03 ± 0.24 µM

## c1ccc2c(c1)oc1ccc(Nc3ccnc(NCCCN4CCN(C5COC5)CC4)n3)cc12 [JX3248, N^4-(dibenzo[b,d]furan-2-yl)-N^2-(3-(4-(oxetan-3-yl)piperazin-1-yl)propyl)pyrimidine-2,4-diamine]
[1]; [3]
  inhibition at 1 µM: 21.9 ± 8.36%
[1]; [4]
  inhibition at 1 µM: 11.5 ± 6.63%
[1]; [5]
  inhibition at 10 µM: 97.46 ± 0.59%
[1]; [6]
  inhibition at 10 µM: 81.5 ± 2.87%
[2]
  IC50: > 50 µM

## c1ccc2c(c1)oc1ccc(Nc3ccnc(NCCCN4CCCCCC4)n3)cc12 [JX3249, N^2-(3-(azepan-1-yl)propyl)-N^4-(dibenzo[b,d]furan-2-yl)pyrimidine-2,4-diamine]
[1]; [7]
  inhibition at 0.5 µM: 56 ± 5.59%
[1]; [8]
  inhibition at 0.5 µM: 46.4 ± 8.18%
[1]; [3]
  inhibition at 1 µM: 92.4 ± 1.44%
[1]; [4]
  inhibition at 1 µM: 82.2 ± 2.24%
[1]; [5]
  inhibition at 10 µM: 98.49 ± 0.04%
[1]; [6]
  inhibition at 10 µM: 94.9 ± 1.88%
[2]
  IC50: 5.1 ± 0.21 µM
